Source: paper PMC8062851, “2-Methoxyestradiol and its derivatives inhibit store-operated Ca^2+ entry in T cells: Identification of a new and potent inhibitor” (Biochimica et Biophysica Acta. Molecular Cell Research, 2021)
Read-outs that look alike come from different tables or passages of the source.

What was measured:
[1] = test system: SOCE in human Jurkat T cells; test: cells; format: cell-based
Description: (§1) Jurkat T-lymphocytes, primary human CD4^+ T cells and H1299 cells were pelleted at 450 ×g for 5 min, rat TMBP at 300 ×g for 8 min at room temperature and were resuspended in 1 ml of either standard JMP medium (Jurkat, H1299 and human CD4^+ T cells) or standard DMEM based medium containing 10% fetal bovine serum (FBS) (v/v) (TMBP cells). Resting TMBP cells (day 5–7 after re-stimulation) after the second to fifth re-stimulation were thawed from liquid nitrogen 12 to 40 h prior to Fura2-loading. After pre-incubation for 5 min at 37 °C, cells were incubated with 4 μM Fura2-AM for 15 min at 37 °C. After addition of the dye, cells were kept in the dark. Afterwards, cells and the dye were diluted by addition of 4 ml standard medium and incubated for another 15 min. Cells were washed twice in Ca^2+ buffer (140 mM NaCl, 5 mM KCl, 1 mM MgSO4, 1 mM CaCl2, 1 mM NaH2PO4, 20 mM HEPES, 5.5 mM glucose; pH 7.4 (NaOH), sterile filtered) and were diluted to a concentration of 2*10^6 cells/ml. Subsequently, cells were kept at room temperature for 20 min for de-esterification before the start of the first measurement.
(§2) In experiments using a Ca^2+ free/Ca^2+ re-addition protocol, cells were pelleted as described for Fura2 loading and Ca^2+ buffer was exchanged by 1 ml nominal Ca^2+ free buffer (140 mM NaCl, 5 mM KCl, 1 mM MgSO4, 1 mM NaH2PO4, 20 mM HEPES, 5.5 mM glucose; pH 7.4 (NaOH), sterile filtered) immediately before starting the measurement. The measurement was controlled by FL Solutions (Version 4.1, Hitachi High-Technologies Corporation). Fura2 was alternatively excited every 2 s at 340 ± 5 nm and 380 ± 5 nm, each 400 ms apart.
Finally, every measurement was calibrated using 0.1% (v/v) Triton X-100 to obtain a maximal ratio and 4 mM EGTA and 30 mM Tris to obtain a minimal ratio.
R is the ratio between F340 and F380. Rmin and Rmax are the minimal and maximal ratio, respectively, obtained by calibration. F380 min and F380 max are the minimal and maximal fluorescence intensity at 380 nm EX during the calibration. Finally, artefacts due to compound additions that usually could easily be identified and lasted about 8 s were deleted from the tracings using FL Solutions (Version 4.1, Hitachi High-Technologies Corporation). The fluorescence intensities of deleted data points were interpolated from those just before and after the deleted time points.
Estradiol, 2ME2 and 2ME2 derivatives were dissolved in DMSO at a concentration of 50 mM and stored at −20 °C for up to 6 months. For concentration-response curves, stock solution was freshly diluted with DMSO to obtain the same DMSO concentration of 0.2% (v/v) for all conditions.
The compound concentrations were then log transformed. Finally, the data were fitted to a corresponding nonlinear fit of variable slope using Prism 6 (GraphPad Software, USA).

SERCA pumps = test: SERCA activity (ATP-induced Ca2+ reuptake) in permeabilized Jurkat T cells; format: cell-based, human
Description: (§3) 3 ∗ 10^7 Jurkat T-lymphocytes per measurement were centrifuged at 450 ×g for 5 min at room temperature. The pellet was rinsed twice, each time using 10 ml permeabilization buffer 1 (120 mM KCl, 10 mM NaCl, 1.2 mM MgCl2, 0.533 mM CaCl2, 1 mM EGTA and 10 mM HEPES, pH 7.2 (KOH), sterile filtered). Subsequently, the pellet was resuspended in 2 ml permeabilization buffer 1 containing 80 μg/ml saponin (Fluka) and the cells were incubated for 10 min at 37 °C. Subsequently, the cells were centrifuged at 450 ×g for 5 min at room temperature and the cell pellet was washed once in 10 ml permeabilization buffer 2 (120 mM KCl, 10 mM NaCl, 1.2 mM MgCl2 and 10 mM HEPES, pH 7.2 (KOH), sterile filtered). Finally, the cells were taken up in 1 ml permeabilization buffer 2, placed into a cuvette and measured at the fluorescence spectrophotometer. Before the start of the measurement, 0.5 μl of 1 mM Fura2 free acid (dissolved in pure water, final concentration: 0.5 μM), 5 μl of 5 mg/ml creatinkinase (dissolved in permeabilization buffer 2, final concentration: 25 μg/ml, 20 U/ml, Roche) and 10 μl of 2 M creatin phosphate (dissolved in permeabilization buffer 2, final concentration: 20 mM, Calbiochem) were added. Fura2 was used to measure the Ca^2+ concentration and creatinkinase and creatin phosphate were used as ATP-regenerating system. The measurement was controlled by FL Solutions (Version 4.1, Hitachi High-Technologies Corporation). Fura2 was alternatively excited every 2 s at 340 ± 5 nm and 380 ± 5 nm, each 400 ms apart. Fluorescence intensity was measured at an emission wavelength of 495 ± 5 nm for both excitation wavelengths. […] Ca^2+ concentrations were calculated according to Grynkiewicz et al. as described earlier in Section 2.4.
(§4) As a quantitative read-out for inhibition of IP3 receptors, the peak [Ca^2+] after IP3 addition was subtracted from the mean [Ca^2+] between 25 and 75 s before IP3 addition (dPeak). […] The rate constant K of the fitted data was used as a quantitative read-out for SERCA pump activity and its inhibition.

IP3 receptors = test: IP3-evoked Ca2+ release in permeabilized Jurkat T cells; format: cell-based, human; conditions: 2 μM IP3
Description: as §3, §4

human PBMCs = test: In vitro activation of human PBMCs by anti-CD3, interferon-γ mRNA by qPCR; format: cell-based; conditions: human PBMC; anti-CD3 stimulation
Description: In vitro activation assays were performed in 96-well plates. Briefly, 10^5 PBMCs isolated from human peripheral blood by Ficoll gradient were added onto plates coated with anti-human CD3 monoclonal antibody (5 μg ml^−1 in PBS, clone OKT3, Biolegend). 2ME2 or STX564 dissolved in DMSO were added in varying concentrations (0.01, 0.1, 1, 10 μM). […]. PBMC activation on mRNA level was determined using qPCR on samples collected 24 h after CD3 stimulation.
(§5) Total RNA was isolated using the standard TRIzol method. cDNA was synthesized using the RevertAid First Strand cDNA Synthesis Kit (Thermo Fisher Scientific). Quantitative PCR (qPCR) was performed using the StepOnePlus™ Real-Time PCR System (Applied Biosystems), as previously described [[23], [24], [25]]. Rat TMBP cell data were obtained from three to four independent duplicate measurements. β-actin served as housekeeping gene. Human PBMC data were obtained from two independent healthy donors and duplicate measurements (representative data of one donor are shown). HPRT served as housekeeping gene. For all probes (TaqMan), a combination of 5′-FAM and 3′-TAMRA quencher was used as described.

TMBP cells [2] = test: In vitro activation of TMBP cells by MBP, cytokine mRNA by qPCR; format: cell-based, rat; conditions: TMBP cells + MBP; 6 h; qPCR
Description: Myelin basic protein (MBP)-reactive CD4^+ T cells retrovirally transduced to express enhanced GFP (TMBP cells) were established as previously reported. In brief, 6–8 week old female Lewis rats were immunized subcutaneously with 150 μl of emulsion consisting of equal parts of MBP (stock concentration: 1 mg/ml) and complete Freund's adjuvant containing heat-inactivated Mycobacterium tuberculosis extract (Difco; stock concentration: 2 mg/ml). Draining lymph nodes were harvested and passed through a cell strainer (40 μm) 9–10 days after immunization. The cell suspension was co-cultured with GP + E86 packaging cell lines producing replication-deficient retroviruses in the presence of 10 μg/ml MBP. Murine IL-2 was added to the culture for T cell expansion from day 2–4 after stimulation. The cell lines underwent 3–4 cycles of stimulation before being used for in vitro and in vivo experiments. […] Upon stimulation, they produced interferon-γ and IL-17.
(§6) In vitro activation assays were performed in 96-well plates. […]. TMBP cell activation on mRNA level was determined using qPCR and on surface protein level using surface marker staining and subsequent flow cytometry analysis.
as §5

TMBP cells [3] = test: In vitro activation of TMBP cells by MBP, CD25 surface expression by flow cytometry; format: cell-based, rat
Description: as §6
To assess in vitro T cell activation, surface staining for CD25 (OX39, Bio-Rad) was performed. APC-labelled goat anti-mouse antibody (Jackson ImmunoResearch) was used as secondary antibody. Mouse IgG1κ (MOPC 31C, Sigma-Aldrich) was used as control.
Cytofluorometric analysis was carried out with a CytoFLEX S (Beckman Coulter) operated by CytExpert software (Beckman Coulter). All procedures were performed at 4 °C. Data were analyzed by using FlowJo software (FlowJo, LLC).

SOCE in Jurkat T cells = test: Inhibition during activated SOCE (thapsigargin or anti-CD3 OKT3, 1 mM extracellular Ca2+) in Jurkat T cells; format: cell-based, human; conditions: Homo sapiens, Jurkat, Jurkat T cells stimulated by 1 μM thapsigargin (TG); 1 mM extracellular Ca2+; read-out: IC50 of SOCE inhibition during active SOCE
Description: as §1
as §2, with “10^6 Jurkat T-lymphocytes, H1299 cells, TMBP cells or 4*10^6 primary human CD4^+ T cells were added into a 10 × 10 mm quartz glass cuvette (Hellma Analytics, Germany) that was placed into a fluorescence spectrophotometer (F-2710, Hitachi, Japan). In” for “In”, “apart. Fluorescence intensity was measured at an emission wavelength of 495 ± 5 nm for both excitation wavelengths.” for “apart.”
Finally, every measurement was calibrated using 0.1% (v/v) Triton X-100 to obtain a maximal ratio and 4 mM EGTA and 30 mM Tris to obtain a minimal ratio. […]
Besides the Ca^2+ free/Ca^2+ re-addition protocol, we also characterized the effect of STX564 in cells during activated SOCE in the presence of thapsigargin (TG, Fig. 2A,B) or upon stimulation via their TCR/CD3 complex (Fig. 2C). […]. […] Similarly, in Fig. 2C this effect of a partial or full recovery of SOCE was also observed, a few minutes after STX564 addition.

[4] = Homo sapiens, Jurkat, read-out: IC50 of SOCE inhibition, Jurkat T cells, Ca2+ free/Ca2+ re-addition protocol, plateau 425-475 s after re-addition of 1 mM Ca2+
[5] = Homo sapiens, Jurkat, Jurkat T cells, Ca2+ free/Ca2+ re-addition protocol, plateau 425-475 s after re-addition of 1 mM Ca2+, read-out: IC50 of SOCE inhibition
[6] = Jurkat T cells, Ca2+ free/Ca2+ re-addition protocol, plateau 425-475 s after re-addition of 1 mM Ca2+, read-out: IC50 of SOCE inhibition
[7] = Jurkat T cells, Ca2+ free/Ca2+ re-addition protocol

Compound: COc1cc2c(cc1O)CCC1C2CCC2(C)C(CC#N)CCC12 (centres unmarked) [STX640]
- IC50 [1, 4]: 2100 nM
- fold more potent than the 17β-hydroxyl-compound (2ME2) ([1]; Jurkat T cells, SOCE): 10 fold

Compound: CCc1cc2c(cc1OS(N)(=O)=O)CCC1C2CCC2(C)C(C[N+](=O)[O-])CCC12 (centres unmarked) [STX1177]
- IC50 [1, 5]: 1300 nM
- IC50 [1, 6]: ~1000 nM

Compound: CCc1cc2c(cc1O)CCC1C2CCC2(C)C(O)CCC12 (centres unmarked) [STX139, 2-ethyl-estradiol]
- IC50 [1, 5]: ~12000 nM
- concentration giving almost complete inhibition of Ca2+ entry [1, 7]: 50 µM

Compound: C/C=C(/C)C(=O)O[C@H]1C(C)=C2[C@H]([C@@H]1OC(=O)CCCCCCC)[C@@](C)(OC(C)=O)C[C@H](OC(=O)CCC)[C@@]1(O)[C@H]2OC(=O)[C@@]1(C)O [thapsigargin]
- effect on SERCA activity (initial slope of [Ca2+] upon ATP addition) (SERCA pumps): almost completely abolished
- effect on IP3-evoked Ca2+ release (IP3 receptors): eliminating effects of IP3

Compound: COc1cc2c(cc1OS(N)(=O)=O)CCC1C2CCC2(C)C(O)CCC12 (centres unmarked) [STX68]
- IC50 ([1]; Homo sapiens, Jurkat, read-out: IC50 of SOCE inhibition): 25000 nM

Compound: CCc1cc2c(cc1O)CCC1C2CCC2(C)C(CC#N)CCC12 (centres unmarked) [STX505]
- IC50 [1, 4]: 1700 nM

Compound: CCc1cc2c(cc1O)CCC1C2CCC2(C)C(CC(C)=O)CCC12 (centres unmarked) [STX1306]
- IC50 [1, 5]: 1600 nM

Compound: C[C@]12CC[C@@H]3c4ccc(O)cc4CC[C@H]3[C@@H]1CC[C@@H]2O [E2, estradiol]
- IC50 [1, 5]: 55000 nM

Compound: COc1cc2c(cc1O)CC[C@@H]1[C@@H]2CC[C@]2(C)[C@@H](O)CC[C@@H]12 [2ME2, 2-Methoxyestradiol]
- fold higher concentration necessary compared to STX564 for antagonist effect on interferon-γ expression (human PBMCs): approx. 10 fold
- concentration at which TCR/CD3-evoked pro-inflammatory cytokine expression was significantly reduced (TMBP cells [2]): significantly higher concentrations
- concentration at which up-regulation of CD25 was significantly reduced (TMBP cells [3]): much higher concentration
- IC50 (SOCE in Jurkat T cells): 71000 nM
- IC50 [1, 5]: 20000 nM
- fold higher potency compared to estradiol in inhibiting Ca2+ entry ([1]; Jurkat T cells, SOCE): 2.5 fold

Compound: CCc1cc2c(cc1OS(N)(=O)=O)CCC1C2CCC2(C)C(CC(C)=O)CCC12 (centres unmarked) [STX1307]
- IC50 [1, 5]: 1100 nM
- IC50 [1, 6]: ~1000 nM

Compound: CCc1cc2c(cc1O)CCC1C2CCC2(C)C(C[N+](=O)[O-])CCC12 (centres unmarked) [STX1175]
- IC50 [1, 5]: 1400 nM

Compound: COc1cc2c(cc1OS(N)(=O)=O)CCC1C2CCC2(C)C(CC#N)CCC12 (centres unmarked) [STX641]
- IC50 [1, 5]: 1700 nM
- fold more potent than the 17β-hydroxyl-compound (2ME2) ([1]; Jurkat T cells, SOCE): 10 fold

Compound: CCc1cc2c(cc1OS(N)(=O)=O)CCC1C2CCC2(C)C(OS(N)(=O)=O)CCC12 (centres unmarked) [STX243]
- IC50 [1, 5]: 5200 nM
- concentration giving almost complete inhibition of Ca2+ entry [1, 7]: 25 µM
- IC50 fold smaller as compared to STX139 ([1]; Jurkat T cells, SOCE): approx. 2 fold
